Reference: PubChem BioAssay (NCI)
Values joined by “and” are separate entries in the source; they are usually repeats but may differ in a detail not shown here. Equal entries are not always repeated.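 Grown in 96-well plates, cells were treated for 48 hours with each compound at five concentrations. Insufficient inhibition: endpoint recorded as highest concentration tested. GI50: concentration for 50% inhibition of growth. TGI marks complete inhibition of growth.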

Test system: MDA-MB-468 breast
Assay: NCI-60 cell line screen, 48 h

Structure (SMILES) | GI50 | TGI
O=C(Nc1cccc(C(F)(F)F)c1)Nc1ccc(OCc2nnc(-c3ccccc3)o2)c(F)c1 | 2570 nM | 13900 nM
COc1cc(/C=N/n2cnc3oc(-c4ccccc4)cc3c2=N)cc(CN2CCCCC2)c1O | 1800 nM | 3650 nM
Cc1c(-c2ccc(N3CCc4cccc(C(=O)Nc5nc6ccccc6s5)c4C3)nc2C(=O)O)cnn1CC12CC3CC(CC(C3)C1)C2 | 6580 nM | 26500 nM
CCn1c(SC)nnc1-c1cc2c([nH]c3ccccc32)c(-c2cccc(O)c2)n1 | 598 nM | 8220 nM
COc1cc(-c2nn(-c3cccc(NC(=O)c4cccc(C(F)(F)F)c4)c3)cc2-c2ccncc2)ccc1Cl | 1320 nM | 4560 nM
O=C(COC(=O)[C@H](C[Se][Se]C[C@H](NC(=O)c1ccc(Br)cc1F)C(=O)OCC(=O)c1ccc(F)cc1)NC(=O)c1ccc(Br)cc1F)c1ccc(F)cc1 | 580 nM | 1680 nM
CCC(=C(c1ccc(OCCN(CC)CC)cc1)c1ccc(OCCN(CC)CC)cc1)c1ccc(Cl)cc1 | 535 nM | 1050 nM
O=C(c1ccccc1)c1ccc(N2C(=O)C3C4c5ccccc5C(/C=C/C(=O)c5ccccn5)(c5ccccc54)C3C2=O)cc1 (centres undefined) | 2390 nM | 6990 nM
COc1ccc(Cl)cc1Nc1nc(C(F)(F)F)ccc1C(=O)N/N=C/c1ccc(Cl)cc1 | 3960 nM | > 100000 nM
CC(=O)OC1CCC2(C)C(=CCC3C4CC(CN5CC5)C(=O)C4(C)CCC32)C1 (centres undefined) | 1680 nM | 4490 nM
Cn1c(=O)c(Oc2ccc(F)cc2F)cc2cnc(NC3CCC(O)CC3)nc21 (centres undefined) | > 25000 nM | > 25000 nM
Cc1cc(N(CCCl)CCCl)ccc1/C=N\NC(=O)c1cccnc1 | 1460 nM | 5410 nM
O=C(Nc1cccc(C(F)(F)F)c1)Nc1cc(S(=O)(=O)NC2CC2)ccc1-c1ccsc1 | 3100 nM | 13800 nM
CC[C@@H](CO)Nc1ccc2ncc(C#Cc3cncc(C(=O)Nc4ccc(CN5CCN(C)CC5)c(C(F)(F)F)c4)c3)n2n1 | 77.9 nM | 194 nM
COc1ccc(S(=O)(=O)NCCCNc2nccc(-c3c(-c4ccc(F)cc4)nc4sccn34)n2)cc1 | 4300 nM | > 100000 nM
COc1ccc(C[C@H](N)C(=O)N[C@@H]2[C@@H](CO)OC(n3cnc4c(N(C)C)ncnc43)[C@@H]2O)cc1 (some centres undefined) | 134 nM | 678 nM
Nc1ccc(N)c2c1C(=O)c1cccc([N+](=O)[O-])c1C2=O | 3410 nM | > 56800 nM
O=C(NCc1cccnc1)c1ccc([N+](=O)[O-])o1 | 5310 nM | > 29000 nM
CN1CCN(Cc2ccc(NC(=O)c3cncc(C#Cc4cnc5cccnn45)c3)cc2C(F)(F)F)CC1 | 1970 nM | 8220 nM

Structure (SMILES) | GI50 | TGI
c1csc(-c2[nH]nc3c2CCc2ccccc2-3)c1 | 175 nM | 494 nM
COc1cc(/C=C/C(=O)c2c(-c3ccc(Cl)cc3)nc3sc(C)nn23)cc(OC)c1OC | 6470 nM | > 100000 nM
Oc1ccc(/C=N/Nc2nnc(N/N=C/c3ccc(O)cc3O)c3ccccc23)c(O)c1 | 355 nM | 1770 nM
COc1cc2c(cc1OCCCN1CCN(CCCn3c4ccccc4c4ccccc43)CC1)N=C[C@@H]1CCCN1C2=O | 23.8 nM | 67.7 nM
C/C=C\C(=O)O[C@@H]1CC2O[C@@H]3C=C(C)C(=O)C[C@]3(C)[C@]1(C)[C@]21CO1 | 567 nM | 2130 nM
CN(C)C(=O)c1cc2cnc(Nc3ccc(N4CCNCC4)cn3)nc2n1C1CCCC1 | 13500 nM | 37600 nM
CC(=O)Nc1ccc(C(=O)COc2cccc(/C=C3\CCc4ccccc4C3=O)c2)cc1 | 3630 nM | > 100000 nM
COc1cc2nccc(Oc3ccc(NC(=O)C4(C(=O)Nc5ccc(F)cc5)CC4)cc3)c2cc1OC | > 10000 nM and 4350 nM | > 10000 nM and 64500 nM
CN1CCN(Cc2ccc(NC(=O)c3cncc(C#Cc4cnc5ccc(NCCCO)nn45)c3)cc2C(F)(F)F)CC1 | 87 nM | 228 nM
O=C1COc2c(CCNCCN(C(=O)CCNCCc3ccc(Cl)c(Cl)c3)C3CCCCC3)ccc(O)c2N1 | 2770 nM | 9420 nM
CCNc1nc(-c2ccc(Cl)c(OC)c2)c(-c2ccnc(NCCNS(=O)(=O)c3ccc(Cl)cc3)n2)s1 | 1960 nM | 5610 nM
OCCn1c(-c2ccncc2)c(-c2ccc(F)cc2)c2ncccc21 | > 25000 nM | > 25000 nM
Cc1cccc(Cc2cnc(NC(=O)CCCOc3ccc(Cl)cc3)s2)c1 | 1740 nM | > 100000 nM
Fc1ccc(-c2cc3nc(C(Cl)Cl)nc(-c4ccc(F)cc4)n3n2)cc1 | 242 nM | 1080 nM
CCc1c[nH]c2ncnc(N3CC[C@](N)(CNC(=O)c4ccc(F)cc4F)C3)c12 | 139 nM | 2230 nM
O=C1C(=O)c2c(ccc3ccccc23)-c2ccccc21 | 1560 nM | 3260 nM
C/C(=N\NC(=O)c1ccncc1)c1ccccc1O | 2040 nM | 9060 nM
CS(=O)(=O)Nc1ccc(Nc2c3ccccc3nc3cc(Cl)ccc23)cc1 | 1990 nM | 9880 nM
